Data: ChEMBL document CHEMBL5154935, “Design, Synthesis, and Biological Evaluation of Novel Evodiamine Derivatives as Potential Antihepatocellular Carcinoma Agents” (J Med Chem, 2022)
Activity calls are given as the source filed them. No cut-off for these calls is given here.

Experiments:
[1] = Acute toxicity in Kunming mouse assessed as animal survival at 100 mg/kg, ip measured for 14 consecutive days; format: organism-based; settings: in vivo, 336 h, time 14 day
[2] = system: Huh-7; assay: Antiproliferative activity against human Huh-7 cells assessed as inhibition of cell viability at less than 0.021 uM treated for 24 hrs by MTT assay; format: functional
[3] = Acute toxicity in Kunming mouse assessed as frequency of defecation at 100 mg/kg, ip measured for 14 consecutive days; format: organism-based; settings: in vivo, 336 h, time 14 day
[4] = system: SK-HEP1; assay: Induction of mitochondrial membrane potential changes in human SK-Hep1 cells assessed as decrease in TMRE positive cells at 10 to 80 nM incubated for 24 hrs by TMRE staining based flow cytometry (reference value: 86.19 %); format: functional; parameters: scale not given: the % may be the effect or the level left; settings: dose 10-80 nM
[5] = Acute toxicity in Kunming mouse assessed as frequency of eating at 100 mg/kg, ip measured for 14 consecutive days; format: organism-based; settings: in vivo, 336 h, time 14 day
[6] = system: Huh-7; assay: Antiproliferative activity against human Huh-7 cells assessed as inhibition of cell viability at less than 0.023 uM treated for 24 hrs by MTT assay; format: functional
[7] = molecular target: T1, DNA topoisomerase 1 (Homo sapiens) (UniProt P11387); assay: Inhibition of Top1 (unknown origin) assessed as inhibition of relaxation of supercoiled pBR322 plasmid DNA at 50 uM incubated for 25 mins by ethidium bromide staining based agarose gel electrophoresis analysis relative to control
T1 sequence (whole entry): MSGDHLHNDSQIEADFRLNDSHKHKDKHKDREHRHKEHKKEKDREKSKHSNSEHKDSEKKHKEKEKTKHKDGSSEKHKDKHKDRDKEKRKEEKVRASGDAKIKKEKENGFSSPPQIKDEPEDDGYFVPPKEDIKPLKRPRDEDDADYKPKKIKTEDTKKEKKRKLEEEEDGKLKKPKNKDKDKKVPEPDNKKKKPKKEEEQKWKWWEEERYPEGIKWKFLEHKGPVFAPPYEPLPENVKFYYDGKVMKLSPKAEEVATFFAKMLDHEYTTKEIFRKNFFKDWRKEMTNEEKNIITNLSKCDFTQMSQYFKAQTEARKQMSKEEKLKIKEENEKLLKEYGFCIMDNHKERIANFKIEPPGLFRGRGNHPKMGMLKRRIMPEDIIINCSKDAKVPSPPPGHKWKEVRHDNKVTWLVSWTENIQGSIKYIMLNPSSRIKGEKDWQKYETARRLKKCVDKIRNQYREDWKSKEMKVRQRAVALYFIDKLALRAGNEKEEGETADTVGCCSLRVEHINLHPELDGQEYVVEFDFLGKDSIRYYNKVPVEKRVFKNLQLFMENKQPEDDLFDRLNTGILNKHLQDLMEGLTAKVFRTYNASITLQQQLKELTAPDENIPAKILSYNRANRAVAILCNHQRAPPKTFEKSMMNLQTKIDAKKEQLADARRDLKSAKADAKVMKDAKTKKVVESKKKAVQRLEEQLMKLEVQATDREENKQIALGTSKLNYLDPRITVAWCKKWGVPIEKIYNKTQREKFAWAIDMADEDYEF

[8] = Acute toxicity in Kunming mouse assessed as frequency of defecation at 400 mg/kg, ip measured for 14 consecutive days; format: organism-based; settings: in vivo, 336 h, time 14 day
[9] = Toxicity in BALB/c mouse xenografted with human Huh-7 cells assessed as aplastic anemia at 10 mg/kg, ip qd for 11 days and measured on day 11; format: organism-based; settings: in vivo, 264 h, time 11 day
[10] = MRT (0 to t) in Sprague-Dawley rat at 80 mg/kg, ip measured upto 24 hrs by LC-MS analysis; format: ADME, organism-based; settings: in vivo
[11] = system: SK-HEP1; assay: Antiproliferative activity against human SK-Hep1 cells assessed as inhibition of cell viability at less than 0.068 uM treated for 24 hrs by MTT assay; format: functional
[12] = system: Huh-7; assay: Antitumor activity in human Huh-7 cells xenografted in BALB/c mouse assessed as decrease in Ki-67 positive cells at 10 mg/kg, ip qd for 11 days and measured on day 12 by immunohistochemistry staining based assay; format: functional, organism-based; settings: time 12.0 day
[13] = Acute toxicity in Kunming mouse assessed as animal survival at 400 mg/kg, ip measured for 14 consecutive days; format: organism-based; settings: in vivo, 336 h, time 14 day
[14] = Tmax in Sprague-Dawley rat at 80 mg/kg, ip measured upto 24 hrs by LC-MS analysis; format: ADME, organism-based; settings: in vivo
[15] = system: Huh-7; assay: Antitumor activity against human Huh-7 cells xenografted in BALB/c mouse assessed as tumor growth inhibition at 10 mg/kg, ip qd for 11 days and measured every 2 days relative to control; format: functional; settings: Huh-7, 264 h, time 11 day, read-out: TGI
[16] = Toxicity in BALB/c mouse xenografted with human Huh-7 cells assessed as histopathological change in spleen at 10 mg/kg, ip qd for 11 days and measured after 12 days by hematoxylin and eosin staining based assay; format: organism-based; settings: in vivo, 288 h, time 12 day
[17] = Toxicity in BALB/c mouse xenografted with human Huh-7 cells assessed as bone marrow suppression at 10 mg/kg, ip qd for 11 days and measured on day 11; format: organism-based; settings: in vivo, 264 h, time 11 day
[18] = Toxicity in BALB/c mouse xenografted with human Huh-7 cells assessed as reduction in WBC levels at 10 mg/kg, ip qd for 11 days and measured on day 11; format: organism-based; settings: in vivo, 264 h, time 11 day
[19] = AUC (0 to t) in Sprague-Dawley rat at 80 mg/kg, ip measured upto 24 hrs by LC-MS analysis; format: ADME, organism-based; parameters: time < 24 hrs, dose 80 mg/kg, route ip; settings: in vivo
[20] = Toxicity in BALB/c mouse xenografted with human Huh-7 cells assessed as histopathological change in lung at 10 mg/kg, ip qd for 11 days and measured after 12 days by hematoxylin and eosin staining based assay; format: organism-based; settings: in vivo, 288 h, time 12 day
[21] = Toxicity in BALB/c mouse xenografted with human Huh-7 cells assessed as decrease in body weight at 10 mg/kg, ip qd for 11 days and measured every 2 days; format: organism-based; settings: in vivo, 264 h, time 11 day
[22] = Half life in Sprague-Dawley rat at 80 mg/kg, ip measured upto 24 hrs by LC-MS analysis; format: ADME, organism-based; settings: in vivo
[23] = system: SK-HEP1; assay: Antiproliferative activity against human SK-Hep1 cells assessed as inhibition of cell viability at less than 0.227 uM treated for 24 hrs by MTT assay; format: functional
[24] = Toxicity in BALB/c mouse xenografted with human Huh-7 cells assessed as histopathological change in kidney at 10 mg/kg, ip qd for 11 days and measured after 12 days by hematoxylin and eosin staining based assay; format: organism-based; settings: in vivo, 288 h, time 12 day
[25] = Toxicity in BALB/c mouse xenografted with human Huh-7 cells assessed as reduction in platelet levels at 10 mg/kg, ip qd for 11 days and measured on day 11; format: organism-based; settings: in vivo, 264 h, time 11 day
[26] = Acute toxicity in Kunming mouse assessed as frequency of eating at 400 mg/kg, ip measured for 14 consecutive days; format: organism-based; settings: in vivo, 336 h, time 14 day
[27] = Toxicity in BALB/c mouse xenografted with human Huh-7 cells assessed as reduction in RBC levels at 10 mg/kg, ip qd for 11 days and measured on day 11; format: organism-based, Erythrocyte; settings: in vivo, 264 h, time 11 day
[28] = Toxicity in BALB/c mouse xenografted with human Huh-7 cells assessed as histopathological change in heart at 10 mg/kg, ip qd for 11 days and measured after 12 days by hematoxylin and eosin staining based assay; format: organism-based; settings: in vivo, 288 h, time 12 day

O=C1c2cc(F)cc(F)c2N(c2cccc(F)c2)C2c3[nH]c4ccc(O)cc4c3CCN12 (centres undefined)
Activity [1]: Non-Toxic
Activity [2]: >80%
Activity [3]: Non-Toxic
Activity [4]: 63.69%
Activity [5]: Non-Toxic
Activity [6]: >80%
inhibition [7]: 92.5%

CC(=O)Oc1ccc2[nH]c3c(c2c1)CCN1C(=O)c2cc(F)cc(F)c2N(c2cccc(F)c2)C31 (centres undefined)
Activity [8]: Non-Toxic
Activity [9]: Non-Toxic
MRT last at 24 h [10]: 11.5 h
Activity [11]: >80%
Activity [12]: Active
Activity [13]: Non-Toxic
Tmax [14]: 3 h
inhibition in vivo at 10 mg/kg [15]: 60.4%
Activity [16]: Non-Toxic
Activity [17]: Non-Toxic
Activity [18]: Non-Toxic
AUC(0-t) at 24 h [19]: 3070 ng·h/mL
Activity [20]: Non-Toxic
Activity [21]: Non-Toxic
half-life [22]: 7.24 h
Activity [23]: >80%
Activity [24]: Non-Toxic
Activity [25]: Non-Toxic
Activity [26]: Non-Toxic
Activity [27]: Non-Toxic
Activity [28]: Non-Toxic
inhibition [7]: 94%
